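Step 1: Grow cells in 96-well plates. Step 2: Expose to compound for 48 hours at 5 concentrations. Step 3: Interpolate endpoints linearly; if unreached, use highest concentration. TGI marks complete inhibition of growth.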
Experiments:
Test in all cases: inhibition of tumour cell growth, NCI panel, 48 h
A498 renal = system: A498 renal
ACHN renal = system: ACHN renal
BT-549 breast = system: BT-549 breast
CAKI-1 renal = system: CAKI-1 renal
CCRF-CEM leukemia = system: CCRF-CEM leukemia
COLO 205 colon = system: COLO 205 colon
DU-145 prostate = system: DU-145 prostate
EKVX NSCLC = system: EKVX NSCLC
HCC-2998 colon = system: HCC-2998 colon
HCT-116 colon = system: HCT-116 colon
HCT-15 colon = system: HCT-15 colon
HL-60(TB) leukemia = system: HL-60(TB) leukemia
HOP-62 NSCLC = system: HOP-62 NSCLC
HS 578T breast = system: HS 578T breast
HT29 colon = system: HT29 colon
IGROV1 ovarian = system: IGROV1 ovarian
K-562 leukemia = system: K-562 leukemia
KM12 colon = system: KM12 colon
M14 melanoma = system: M14 melanoma
MALME-3M melanoma = system: MALME-3M melanoma
MCF7 breast = system: MCF7 breast
MDA-MB-231 breast = system: MDA-MB-231 breast
MDA-N = system: MDA-N
MOLT-4 leukemia = system: MOLT-4 leukemia
NCI-H226 lung = system: NCI-H226 lung
NCI-H23 lung = system: NCI-H23 lung
NCI-H460 lung = system: NCI-H460 lung
NCI-H522 lung = system: NCI-H522 lung
NCI/ADR-RES ovarian = system: NCI/ADR-RES ovarian
OVCAR-3 ovarian = system: OVCAR-3 ovarian
OVCAR-4 ovarian = system: OVCAR-4 ovarian
OVCAR-5 ovarian = system: OVCAR-5 ovarian
OVCAR-8 ovarian = system: OVCAR-8 ovarian
PC-3 prostate = system: PC-3 prostate
SF-268 CNS = system: SF-268 CNS
SF-295 CNS = system: SF-295 CNS
SK-MEL-2 melanoma = system: SK-MEL-2 melanoma
SK-MEL-28 melanoma = system: SK-MEL-28 melanoma
SK-MEL-5 melanoma = system: SK-MEL-5 melanoma
SK-OV-3 ovarian = system: SK-OV-3 ovarian
SN12C renal = system: SN12C renal
SNB-19 CNS = system: SNB-19 CNS
SNB-75 CNS = system: SNB-75 CNS
SR leukemia = system: SR leukemia
SW-620 colon = system: SW-620 colon
T-47D breast = system: T-47D breast
TK-10 renal = system: TK-10 renal
U251 CNS = system: U251 CNS
UACC-257 melanoma = system: UACC-257 melanoma
UACC-62 melanoma = system: UACC-62 melanoma
UO-31 renal = system: UO-31 renal
A549 NSCLC = system: A549 NSCLC
HOP-92 NSCLC = system: HOP-92 NSCLC
MDA-MB-435 = system: MDA-MB-435
RPMI-8226 leukemia = system: RPMI-8226 leukemia

CCOC(=O)/C(Cl)=C(\C)Nc1nc2c(ccc3ccccc32)s1
TGI (A498 renal): > 100 µM
TGI (ACHN renal): > 100 µM
TGI (BT-549 breast): > 100 µM
TGI (CAKI-1 renal): > 100 µM
TGI (CCRF-CEM leukemia): > 100 µM
TGI (COLO 205 colon): > 100 µM
TGI (DU-145 prostate): 46.6 µM
TGI (EKVX NSCLC): > 100 µM
TGI (HCC-2998 colon): 39.2 µM
TGI (HCT-116 colon): > 100 µM
TGI (HCT-15 colon): > 100 µM
TGI (HL-60(TB) leukemia): > 100 µM
TGI (HOP-62 NSCLC): > 100 µM
TGI (HS 578T breast): > 100 µM
TGI (HT29 colon): > 100 µM
TGI (IGROV1 ovarian): > 100 µM
TGI (K-562 leukemia): > 100 µM
TGI (KM12 colon): > 100 µM
TGI (M14 melanoma): > 100 µM
TGI (MALME-3M melanoma): > 100 µM
TGI (MCF7 breast): > 100 µM
TGI (MDA-MB-231 breast): > 100 µM
TGI (MDA-N): > 100 µM
TGI (MOLT-4 leukemia): > 100 µM
TGI (NCI-H226 lung): > 100 µM
TGI (NCI-H23 lung): > 100 µM
TGI (NCI-H460 lung): 69.3 µM
TGI (NCI-H522 lung): 70.9 µM
TGI (NCI/ADR-RES ovarian): > 100 µM
TGI (OVCAR-3 ovarian): > 100 µM
TGI (OVCAR-4 ovarian): > 100 µM
TGI (OVCAR-5 ovarian): > 100 µM
TGI (OVCAR-8 ovarian): > 100 µM
TGI (PC-3 prostate): > 100 µM
TGI (SF-268 CNS): > 100 µM
TGI (SF-295 CNS): > 100 µM
TGI (SK-MEL-2 melanoma): 60.1 µM
TGI (SK-MEL-28 melanoma): > 100 µM
TGI (SK-MEL-5 melanoma): > 100 µM
TGI (SK-OV-3 ovarian): > 100 µM
TGI (SN12C renal): > 100 µM
TGI (SNB-19 CNS): > 100 µM
TGI (SNB-75 CNS): > 100 µM
TGI (SR leukemia): 77.1 µM
TGI (SW-620 colon): > 100 µM
TGI (T-47D breast): 43.6 µM
TGI (TK-10 renal): > 100 µM
TGI (U251 CNS): > 100 µM
TGI (UACC-257 melanoma): > 100 µM
TGI (UACC-62 melanoma): > 100 µM
TGI (UO-31 renal): > 100 µM

NCCCN(CCCCN(CCCN)Cc1ccc2ccccc2c1)Cc1ccc2ccccc2c1
TGI (A498 renal): 5.06 µM
TGI (A549 NSCLC): 3.2 µM
TGI (ACHN renal): 3.3 µM
TGI (BT-549 breast): 3.89 µM
TGI (CAKI-1 renal): 3.15 µM
TGI (CCRF-CEM leukemia): > 100 µM
TGI (COLO 205 colon): 5.22 µM
TGI (EKVX NSCLC): 3.37 µM
TGI (HCC-2998 colon): 9.37 µM
TGI (HCT-15 colon): 13.1 µM
TGI (HL-60(TB) leukemia): > 100 µM
TGI (HOP-92 NSCLC): 5.75 µM
TGI (HS 578T breast): 3.06 µM
TGI (HT29 colon): 3.11 µM
TGI (IGROV1 ovarian): 3.3 µM
TGI (K-562 leukemia): > 100 µM
TGI (KM12 colon): 3.32 µM
TGI (M14 melanoma): 3.63 µM
TGI (MALME-3M melanoma): 3.39 µM
TGI (MDA-MB-231 breast): 11.8 µM
TGI (MDA-MB-435): 4.27 µM
TGI (MDA-N): 3.3 µM
TGI (MOLT-4 leukemia): 4.74 µM
TGI (NCI-H23 lung): 3.34 µM
TGI (NCI-H460 lung): 3.43 µM
TGI (NCI/ADR-RES ovarian): 54.3 µM
TGI (OVCAR-4 ovarian): 4.09 µM
TGI (OVCAR-5 ovarian): 3.44 µM
TGI (RPMI-8226 leukemia): 6.88 µM
TGI (SF-268 CNS): 2.57 µM
TGI (SF-295 CNS): 3.7 µM
TGI (SK-OV-3 ovarian): 3.39 µM
TGI (SN12C renal): 3.08 µM
TGI (SNB-19 CNS): 2.86 µM
TGI (SNB-75 CNS): 3.89 µM
TGI (T-47D breast): 5.03 µM
TGI (TK-10 renal): 5.05 µM
TGI (UO-31 renal): 6.1 µM
